From US9999656B2, “Treatment of short bowel syndrome patients with colon-in-continuity” (Shire-NPS Pharmaceuticals, Inc., priority 2004, dated 2018)

System: patients with short bowel syndrome (SBS)
Test: 72-hour nutrient balance studies in open-label pilot study of teduglutide
Assay type: in vivo, human
Details: for Energy Absorption (% of intake), Effect of Treatment (Treatment minus Baseline) mean ± SD / Energy Absorption, Effect of Treatment (Treatment minus Baseline) mean ± SD / Energy Fecal, Effect of Treatment (Treatment minus Baseline) mean ± SD / Urine Wet Weight, Effect of Treatment (Treatment minus Baseline) mean ± SD / Wet Weight Absorption (% of intake), Effect of Treatment (Treatment minus Baseline) mean ± SD / Wet Weight Absorption, Effect of Treatment (Treatment minus Baseline) mean ± SD / Wet Weight Fecal, Effect of Treatment (Treatment minus Baseline) mean ± SD: Days 18-21 vs baseline; for Energy Absorption (% of intake), Effect at Follow up (Follow up minus Baseline) mean ± SD / Energy Absorption, Effect at Follow up (Follow up minus Baseline) mean ± SD / Energy Fecal, Effect at Follow up (Follow up minus Baseline) mean ± SD / Urine Wet Weight, Effect at Follow up (Follow up minus Baseline) mean ± SD / Wet Weight Absorption (% of intake), Effect at Follow up (Follow up minus Baseline) mean ± SD / Wet Weight Absorption, Effect at Follow up (Follow up minus Baseline) mean ± SD / Wet Weight Fecal, Effect at Follow up (Follow up minus Baseline) mean ± SD: follow-up Days 39-42 vs baseline; for decrease in fecal energy excretion compared to baseline: stated as reduction
Procedure: This was an open-label, pilot study to determine the safety and effect of teduglutide in patients with short bowel syndrome (SBS). The patient's history was reviewed and a physical examination performed to determine eligibility before inclusion in the study. Estimated residual small intestine and colon lengths were determined by reviewing operative reports and available radiographic studies. Eligible patients were admitted as inpatients to hospital wards or General Clinic Research Centers (GCRC) on three separate occasions, 18 days apart, for the last four days and three nights of the baseline period and at the end of the treatment and follow-up periods. Treatment consisted of recombinant teduglutide (supplied by NPS Allelix, Mississauga, ON, Canada) formulated as a lyophilized powder with L-histidine, mannitol, and monobasic and dibasic sodium phosphate (Lot 8502901). Water was added to reconstitute the drug for administration by subcutaneous (s.c.) injections in the abdomen or thigh. Ten SBS patients with jejunostomy received 0.03 mg/kg/d, 0.10 mg/kg/d or 0.15 mg/kg/d once daily for 21 days. Five SBS patients with ≥50% colon-in-continuity received teduglutide 0.10 mg/kg/d once daily for 21 days.
The 72-hour nutrient balance studies were completed with each patient eating their usual diet, calculated from a seven-day food diary completed by the patient during the screening period. It was intended that patients eat the same quantity and quality of food and beverages during each admission. During the 72-hour balance periods, all oral intake (duplicate meals and beverages and declined food), fecal/stomal output, and urine were collected and weighed. All stool samples were refrigerated during the collection period. Stools and diets were separately homogenized and analyzed for energy content (by bomb calorimetry), nitrogen (by the macro-Kjeldahl's method), fat (by the gravimetric technique), and sodium and potassium (by atomic absorption).
Using the SAS (Version 8.2; SAS Institute, Cary, N.C.) statistical program, a Student's paired t test was employed that compared treatment to baseline values, and follow-up to baseline values. No comparisons were made between patients on different doses or with different anatomy due to the limited number of patients in the study. Data are expressed as mean±SD. A value of p<0.05 was considered significant.

[1] = Group 2 SBS end-jejunostomy, N=10, 0.03-0.15 mg/kg/d s.c. once daily 21 days
[2] = Group 2 SBS end-jejunostomy, N=10
[3] = Group 2 SBS end-jejunostomy, of N=10
[4] = Group 3 SBS ≥50% colon-in-continuity, N=5, 0.10 mg/kg/d s.c. once daily 21 days
[5] = Group 3 SBS ≥50% colon-in-continuity, N=5
[6] = Group 3 SBS ≥50% colon-in-continuity, of N=5

Structure (SMILES): CC[C@H](C)[C@H](NC(=O)[C@H](Cc1ccccc1)NC(=O)[C@H](CC(=O)O)NC(=O)[C@H](CCCNC(=N)N)NC(=O)[C@H](C)NC(=O)[C@H](C)NC(=O)[C@H](CC(C)C)NC(=O)[C@H](CC(N)=O)NC(=O)[C@H](CC(=O)O)NC(=O)[C@H](CC(C)C)NC(=O)[C@@H](NC(=O)[C@@H](NC(=O)[C@H](CC(N)=O)NC(=O)[C@H](CCSC)NC(=O)[C@H](CCC(=O)O)NC(=O)[C@H](CC(=O)O)NC(=O)[C@H](CO)NC(=O)[C@H](Cc1ccccc1)NC(=O)[C@H](CO)NC(=O)CNC(=O)[C@H](CC(=O)O)NC(=O)CNC(=O)[C@@H](N)Cc1c[nH]cn1)[C@@H](C)O)[C@@H](C)CC)C(=O)N[C@@H](CC(N)=O)C(=O)N[C@@H](Cc1c[nH]c2ccccc12)C(=O)N[C@@H](CC(C)C)C(=O)N[C@H](C(=O)N[C@@H](CCC(N)=O)C(=O)N[C@H](C(=O)N[C@@H](CCCCN)C(=O)N[C@H](C(=O)N[C@H](C(=O)N[C@@H](CC(=O)O)C(=O)O)[C@@H](C)O)[C@@H](C)CC)[C@@H](C)O)[C@@H](C)CC [teduglutide, [Gly2]hGLP-2]
- Energy Absorption (% of intake), Effect of Treatment (Treatment minus Baseline) mean ± SD [1]: 5 ± 20 % of intake
- Energy Absorption, Effect of Treatment (Treatment minus Baseline) mean ± SD [1]: 363 ± 2656 kJ/day
- Energy Fecal, Effect of Treatment (Treatment minus Baseline) mean ± SD [1]: -532 ± 1703 kJ/day
- Urine Wet Weight, Effect of Treatment (Treatment minus Baseline) mean ± SD [1]: 680 ± 535 g/day
- Wet Weight Absorption (% of intake), Effect of Treatment (Treatment minus Baseline) mean ± SD [1]: 20±18 % of intake
- Wet Weight Absorption, Effect of Treatment (Treatment minus Baseline) mean ± SD [1]: 788 ± 551 g/day
- Wet Weight Fecal, Effect of Treatment (Treatment minus Baseline) mean ± SD [1]: -682 ± 911 g/day
- Energy Absorption (% of intake), Effect at Follow up (Follow up minus Baseline) mean ± SD [2]: −6 ± 12 % of intake
- Energy Absorption, Effect at Follow up (Follow up minus Baseline) mean ± SD [2]: -800 ± 2958 kJ/day
- Energy Fecal, Effect at Follow up (Follow up minus Baseline) mean ± SD [2]: 320 ± 1200 kJ/day
- Urine Wet Weight, Effect at Follow up (Follow up minus Baseline) mean ± SD [2]: 11 ± 287 g/day
- Wet Weight Absorption (% of intake), Effect at Follow up (Follow up minus Baseline) mean ± SD [2]: −9 ± 16 % of intake
- Wet Weight Absorption, Effect at Follow up (Follow up minus Baseline) mean ± SD [2]: -218 ± 577 g/day
- Wet Weight Fecal, Effect at Follow up (Follow up minus Baseline) mean ± SD [2]: 278 ± 496 g/day
- Energy Absorption (% of intake), Patients With Beneficial Effect [3]: 6
- Energy Absorption (kJ/day), Patients With Beneficial Effect [3]: 6
- Energy Fecal, Patients With Beneficial Effect [3]: 8
- Urine Wet Weight, Patients With Beneficial Effect [3]: 8
- Wet Weight Absorption (% of intake), Patients With Beneficial Effect [3]: 8
- Wet Weight Absorption (g/day), Patients With Beneficial Effect [3]: 9
- Wet Weight Fecal, Patients With Beneficial Effect [3]: 8
- decrease in fecal wet weight compared to baseline (Group 2 SBS end-jejunostomy, 21-day treatment, stated as decrease): 682 ± 911 g/day
- decrease in fecal energy excretion compared to baseline (Group 2 SBS end-jejunostomy, p>0.05): 532 ± 1703 kJ/day
- decrease in fecal energy excretion compared to baseline (Group 3 SBS colon-in-continuity): 1343 ± 916 kJ/day
- Energy Absorption (% of intake), Effect of Treatment (Treatment minus Baseline) mean ± SD [4]: 10±7 % of intake
- Energy Absorption, Effect of Treatment (Treatment minus Baseline) mean ± SD [4]: 1027 ± 798 kJ/day
- Energy Fecal, Effect of Treatment (Treatment minus Baseline) mean ± SD [4]: -1343 ± 916 kJ/day
- Urine Wet Weight, Effect of Treatment (Treatment minus Baseline) mean ± SD [4]: 461 ± 200 g/day
- Wet Weight Absorption (% of intake), Effect of Treatment (Treatment minus Baseline) mean ± SD [4]: 26±16 % of intake
- Wet Weight Absorption, Effect of Treatment (Treatment minus Baseline) mean ± SD [4]: 751 ± 328 g/day
- Wet Weight Fecal, Effect of Treatment (Treatment minus Baseline) mean ± SD [4]: -822 ± 341 g/day
- Energy Absorption (% of intake), Effect at Follow up (Follow up minus Baseline) mean ± SD [5]: 10 ± 17 % of intake
- Energy Absorption, Effect at Follow up (Follow up minus Baseline) mean ± SD [5]: 907 ± 1146 kJ/day
- Energy Fecal, Effect at Follow up (Follow up minus Baseline) mean ± SD [5]: -997 ± 1713 kJ/day
- Urine Wet Weight, Effect at Follow up (Follow up minus Baseline) mean ± SD [5]: -90 ± 281 g/day
- Wet Weight Absorption (% of intake), Effect at Follow up (Follow up minus Baseline) mean ± SD [5]: 17 ± 30 % of intake
- Wet Weight Absorption, Effect at Follow up (Follow up minus Baseline) mean ± SD [5]: 352 ± 525 g/day
- Wet Weight Fecal, Effect at Follow up (Follow up minus Baseline) mean ± SD [5]: -240 ± 426 g/day
- Energy Absorption (% of intake), Patients With Beneficial Effect [6]: 5
- Energy Absorption (kJ/day), Patients With Beneficial Effect [6]: 5
- Energy Fecal, Patients With Beneficial Effect [6]: 4
- Urine Wet Weight, Patients With Beneficial Effect [6]: 5
